Assay results as given in US6660734B1, “Oxazinones having antibacterial activity” (Simon Fraser University, priority 1997, dated 2003).

Legend:
[1] = test system: glutamate-aspartate transaminase; conditions: according to Khomutov; cited from earlier work
tuberculosis bacilli = conditions: according to Khomutov; cited from earlier work
Micrococcus luteus = test: Filter disc bioassay on agar plates seeded with Micrococcus luteus; type: cell-based; conditions: for ZONE SIZE: M. luteus, overnight 37° C.
Procedure: Samples were applied to filter discs in the amounts indicated. The discs were applied to agar plates seeded with Micrococcus luteus, and the plates were incubated overnight at 37° C. The results are illustrated in FIG. 5 and summarized in the following Table 1: Samples were assayed as in Example 3, with the results summarized in the following Table 2: […]

SMILES: NC1CCONC1=O (racemic) [cyclocanaline, 4-amino-tetrahydro-1,2-oxazin-3-one]
- inhibition of glutamate-aspartate transaminase [1]: known to lnhibit glutamate-aspartate transaminase
- activity against tuberculosis bacilli (tuberculosis bacilli): exhibits activity against tuberculosis bacilli

SMILES: O=C(O)CN1OC=C(O)CC1=O [Example 1, 2-Carboxymethyl-5-hydroxy-1,2-oxazin-3-one]
- antibacterial activity (Micrococcus luteus; in words, from Tables 1 and 2): weak antibacterial activity
- antibacterial activity, times less than that of penicillin (Micrococcus luteus; relative to penicillin, from Tables 1 and 2): at least 1000 times

SMILES: CC(CN1OC=C(O)CC1=O)C(=O)O (stereo not shown) [Example 2, 2-[2-Carboxypropyl]-5-hydroxy-1,2-oxazin-3-one]
- activity, times the activity of the carboxymethyl product (Micrococcus luteus; relative to product of Example 1, from Tables 1 and 2): approximately 50 times

SMILES: CC1=C(C(=O)O)N2C(=O)[C@@H](NC(=O)Cc3ccccc3)[C@H]2SC1 [desacetoxycephalosporin G]
- ZONE SIZE (Micrococcus luteus; Table 2, 2.5 micrograms on filter disc): 2.5 cm

SMILES: CC1(C)S[C@@H]2[C@H](NC(=O)Cc3ccccc3)C(=O)N2[C@H]1C(=O)O [penicillin G]
- ZONE SIZE (Micrococcus luteus; Table 1, 0.1 micrograms on filter disc): 1.6 cm
